Read-outs that look alike come from different tables or passages of the source.

The subject of test [1] is A2780 cells (ovarian cancer cells). The test can be described thus: Cell viability of A2780 cells (Cell-titer Glo). In kind it is cell-based. Particulars: Homo sapiens. As for the experimental part: (§1) In order to confirm the inhibitory effect of the compound represented by formula 1 according to the present invention on the growth of MCF7, MCF7-SP, A2780 or A2780-SP cells, the following experiment was performed, and the results are shown in Tables 4 and 5 below.
In addition, A2780 cells (ovarian cancer cells) were plated in a 96-well plate at the density of 3000 viable cells per well, and cultured in RPMI-1640 medium supplemented with 10% FBS and 1% penicillin/streptomycin.
On the next day of culture, the cells were treated with the compound of Examples 57, and 69 to 144, followed by culture for 3 days. Cell viability was evaluated by Cell-titer Glo (Promega, WC, USA), and luciferase activity was detected using a Tecan plate reader (Biocompare, USA).

Test [2] relates to A2780-SP cells (ovarian cancer stem cells). Kind of test: Sphere cell viability of A2780-SP cells (Cell-titer Glo). The format is cell-based. As for the experimental part:
as §1
On the other hand, A2780-SP cells (ovarian cancer stem cells) were plated in an Ultra-Low Attachment round bottom 96-well plate (corning) at the density of 1,500 viable cells per well, and cultured in cancer stem cell medium. The cancer stem cell medium is composed of the neurobasal medium supplemented with 20 ng/ml of bFGF, 10 ng/ml of EGF, […] of amphotericin B, HEPES, Glutamax and B27.
On the next day of culture, the cells were treated with the compound of Examples 57, and 69 to 144, followed by culture for 8 days. The medium containing the compound was added thereto once again on the 4th day. Sphere cell viability was evaluated by Cell-titer Glo (Promega, WC, USA), and luciferase activity was detected using a Tecan plate reader (Biocompare, USA).

The next test deals with T1, Pin1 (Homo sapiens, UniProt Q13526).
T1 construct: purchased Anaspec
Kind of test: Evaluation of Pin1 enzyme inhibitory activity (Sensolyte Green Pin1 assay kit). The format is biochemical. An outline of the steps: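 Pin1 activity was measured with a fluorogenic kit assay (Sensolyte Green) using substrate prepared at 1 μM and protein at 50 μg/ml, both pre-mix concentrations. Compound working solutions were 100, 10, 1 or 0.1 μM, and reactions ran 2 h at room temperature in the dark, read at 490/520 nm. Inhibition was graded A–D by concentration.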

Where [3] appears, read: 72 h, cell viability, culture for 3 days, read-out: A2780.
[4] abbreviates: 192 h, sphere cell viability, culture for 8 days, read-out: A2780-SP.
[5] abbreviates: concentration at which the Pin1 enzyme activity is inhibited, 2 hours at room temperature, fluorescence 490 nm/520 nm, read-out: Pin 1 inhibition.
Setting [6] is: A2780, Table 5, read-out: A2780 cell concentration.
The mark [7] stands for this setting: Table 5, read-out: the concentration (second list of b710, cell line not named; matches A2780-SP column).
Setting [8] is: Table 2, read-out: concentration at which Pin1 inhibitory activity was exhibited.

T1 sequence (Q13526 whole entry): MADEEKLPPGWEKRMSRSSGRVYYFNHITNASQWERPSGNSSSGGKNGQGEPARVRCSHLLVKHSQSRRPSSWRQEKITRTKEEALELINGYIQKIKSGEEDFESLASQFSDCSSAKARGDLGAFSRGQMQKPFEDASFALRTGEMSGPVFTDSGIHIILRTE

As to `O=S(=O)(NCCCc1c[nH]c2ccc(Cl)cc12)c1cccc(OCCCN2CCCCC2)c1` [Example 95, N-(3-(5-chloro-1H-indol-3-yl)propyl)-3-(3-(piperidin-1-yl)propoxy)benzenesulfonamide], the IC50 is more than 10 µM in test [1] (setting [3]), 1 to 10 µM in test [2] (setting [4]) and 1 to 10 µM at Pin1 (setting [5]).
With `O=S(=O)(NCCCc1c[nH]c2ccc(Cl)cc12)c1ccc(OCCCN2CCCC2)cc1` [Example 100, N-(3-(5-chloro-1H-indol-3-yl)propyl)-4-(3-(pyrrolidin-1-yl)propoxy)benzenesulfonamide], the IC50 in test [1] (setting [3]) was 1 to 10 µM; in test [1] (setting [6]), less than 10 µM; in test [2] (setting [4]), less than 1 µM; in test [2] (setting [7]), less than 1 µM; at Pin1 (setting [8]), less than 1 µM; on Pin1 (setting [5]) it was less than 1 µM.
Regarding `C[C@@H]1CN(CCCOc2ccc(S(=O)(=O)NCCCc3c[nH]c4ccc(Cl)cc34)cc2)CCN1` [Example 108, (R)—N-(3-(5-chloro-1H-indol-3-yl)propyl)-4-(3-(3-methylpiperazin-1-yl)propoxy)benzenesulfonamide], the IC50 was 1 to 10 µM in test [1] (setting [3]); less than 10 µM in test [1] (setting [6]); less than 1 µM in test [2] (setting [4]); less than 1 µM in test [2] (setting [7]); less than 1 µM at Pin1 (setting [8]); less than 1 µM on Pin1 (setting [5]).
With `C[C@H]1CN(CCCOc2ccc(S(=O)(=O)NCCCc3c[nH]c4ccc(Cl)cc34)cc2)CCN1` [Example 109, (S)—N-(3-(5-chloro-1H-indol-3-yl)propyl)-4-(3-(3-methylpiperazin-1-yl)propoxy)benzenesulfonamide], the IC50 in test [1] (setting [3]) was 1 to 10 µM; in test [1] (setting [6]) it was less than 10 µM; in test [2] (setting [4]) it was less than 1 µM; in test [2] (setting [7]), less than 1 µM; on Pin1 (setting [8]), less than 1 µM; on Pin1 (setting [5]), less than 1 µM.
On to `C[C@@H]1CN(CCCOc2ccc(S(=O)(=O)NCCCc3c[nH]c4ccc(Cl)cc34)cc2)C[C@H](C)N1` [Example 110, N-(3-(5-chloro-1H-indol-3-yl)propyl)-4-(3-((3S,5R)-3,5-dimethylpiperazin-1-yl)propoxy)benzenesulfonamide], for which the IC50 in test [1] (setting [3]) was more than 10 µM; in test [2] (setting [4]), less than 1 µM; in test [2] (setting [7]), less than 1 µM; at Pin1 (setting [5]), 1 to 10 µM.
As to `C[C@H]1CN(CCCOc2ccc(S(=O)(=O)NCCCc3c[nH]c4ccc(Cl)cc34)cc2)CCN1C` [Example 111, (S)—N-(3-(5-chloro-1H-indol-3-yl)propyl)-4-(3-(3,4-dimethylpiperazin-1-yl)propoxy)benzenesulfonamide], the IC50 is more than 10 µM in test [1] (setting [3]), less than 1 µM in test [2] (setting [4]), less than 1 µM in test [2] (setting [7]) and 1 to 10 µM on Pin1 (setting [5]).
Regarding `CN1CCN(CCCCc2ccc(S(=O)(=O)NCCCc3c[nH]c4ccc(Cl)cc34)cc2)CC1` [Example 112, N-(3-(5-chloro-1H-indol-3-yl)propyl)-4-(4-(4-methylpiperazin-1-yl)butyl)benzenesulfonamide], the IC50 in test [1] (setting [3]) was more than 10 µM; in test [2] (setting [4]), less than 1 µM; in test [2] (setting [7]), less than 1 µM; on Pin1 (setting [8]), less than 1 µM; at Pin1 (setting [5]) it was less than 1 µM.
For the compound `CN1CCN(c2cc(Oc3ccc(S(=O)(=O)NCCCc4c[nH]c5ccc(Cl)cc45)cc3)cc(N3CCN(C)CC3)c2)CC1` [Example 130, 4-(3,5-bis(4-methylpiperazine-1-yl)phenoxy)-N-(3-(5-chloro-1H-indole-3-yl)propyl)benzenesulfonamide], the IC50 in test [1] (setting [3]) is 1 to 10 µM; in test [1] (setting [6]), less than 10 µM; in test [2] (setting [4]), 1 to 10 µM; on Pin1 (setting [8]) it was less than 1 µM; at Pin1 (setting [5]), less than 1 µM.
For `CN1CCN(c2ccnc(Nc3ccc(S(=O)(=O)NCCCc4c[nH]c5ccc(Cl)cc45)cc3)c2)CC1` [Example 133, N-(3-(5-chloro-1H-indol-3-yl)propyl)-4-((4-(4-methylpiperazin-1-yl)pyridin-2-yl)amino)benzenesulfonamide], the IC50 was more than 10 µM in test [1] (setting [3]), 1 to 10 µM in test [2] (setting [4]), less than 1 µM on Pin1 (setting [8]) and less than 1 µM on Pin1 (setting [5]).
With `O=S(=O)(NCCCc1c[nH]c2ccc(Cl)cc12)c1ccc(Nc2cc(N3CCNCC3)ccn2)cc1` [Example 134, N-(3-(5-chloro-1H-indol-3-yl)propyl)-4-((4-(piperazin-1-yl)pyridin-2-yl)amino)benzenesulfonamide], the IC50 is more than 10 µM in test [1] (setting [3]); less than 1 µM in test [2] (setting [4]); less than 1 µM in test [2] (setting [7]); less than 1 µM at Pin1 (setting [8]); less than 1 µM on Pin1 (setting [5]).
As for `CN1CCN(c2cc(F)cc(Oc3ccc(S(=O)(=O)NCCCc4c[nH]c5ccc(Cl)cc45)cc3)c2)CC1` [Example 137, N-(3-(5-chloro-1H-indol-3-yl)propyl)-4-(3-fluoro-5-(4-methylpiperazin-1-yl)phenoxy)benzenesulfonamide], the IC50 in test [1] (setting [3]) is more than 10 µM; in test [2] (setting [4]), 1 to 10 µM; at Pin1 (setting [8]) it was less than 1 µM; at Pin1 (setting [5]), less than 1 µM.
As to `CN1CCN(c2cc(Br)cc(Oc3ccc(S(=O)(=O)NCCCc4c[nH]c5ccc(Cl)cc45)cc3)c2)CC1` [Example 138, N-(3-(5-chloro-1H-indole-3-yl)propyl)-4-(3-bromo-5-(4-methylpiperazine-1-yl)phenoxy)benzenesulfonamide], the IC50 in test [1] (setting [3]) is more than 10 µM; in test [2] (setting [4]) it was 1 to 10 µM; on Pin1 (setting [8]) it was less than 1 µM; on Pin1 (setting [5]) it was less than 1 µM.
Take `CN1CCN(CCCOc2ccc(C(=O)NCCCc3c[nH]c4ccc(Cl)cc34)cc2)CC1` [Example 143, N-(3-(5-chloro-1H-indole-3-yl)propyl)-4-(3-(4-methylpiperazine-1-yl)propoxy)benzamide]: the IC50 is 1 to 10 µM in test [2] (setting [4]), less than 1 µM on Pin1 (setting [8]) and less than 1 µM at Pin1 (setting [5]).
For the compound `CS(=O)(=O)CCCOc1ccc(S(=O)(=O)NCCCc2c[nH]c3ccc(Cl)cc23)cc1` [Example 145, N-(3-(5-chloro-1H-indol-3-yl)propyl)-4-(3-(methylsulfonyl)propoxy)benzenesulfonamide], the IC50 in test [1] (setting [3]) is more than 10 µM; in test [2] (setting [4]) it was more than 10 µM; on Pin1 (setting [8]), less than 1 µM; on Pin1 (setting [5]), less than 1 µM.
`O=S(=O)(NCCCc1c[nH]c2ccc(Cl)cc12)c1cnc(NCCCN2CCNCC2)s1` [Example 146, N-(3-(5-chloro-1H-indole-3-yl)propyl)-2-((3-(piperazine-1-yl)propyl)amino)thiazole-5-sulfonamide]: the IC50 in test [1] (setting [3]) was more than 10 µM; in test [2] (setting [4]), 1 to 10 µM; on Pin1 (setting [8]) it was less than 1 µM; at Pin1 (setting [5]) it was less than 1 µM.
For `Cc1[nH]c2ccc(Cl)cc2c1CCCNS(=O)(=O)c1ccc(OCCCN2CCN(C)CC2)cc1` [Example 147, N-(3-(5-chloro-2-methyl-1H-indole-3-yl)propyl)-4-(3-(4-methylpiperazine-1-yl)propoxy)benzenesulfonamide], the IC50 in test [1] (setting [3]) was more than 10 µM; in test [2] (setting [4]), more than 10 µM; on Pin1 (setting [8]), less than 1 µM; at Pin1 (setting [5]), less than 1 µM.
Regarding `O=S(=O)(NCCCc1c[nH]c2ccc(Cl)cc12)c1ccc(CCCCn2ccnc2)cc1` [Example 148], the IC50 was more than 10 µM in test [1] (setting [3]), 1 to 10 µM in test [2] (setting [4]), less than 1 µM on Pin1 (setting [8]) and less than 1 µM at Pin1 (setting [5]).

The values above are taken from patent US12583818B2 (DAEGU-GYEONGBUK MEDICAL INNOVATION FOUNDATION, priority 2020, dated 2026).
